# From ChEMBL document CHEMBL1201862, “PubChem BioAssay data set” (2004)
# Calls of active or inactive are those of the source.
# How the values were obtained:
# [1] = target: T1, Alkaline phosphatase, tissue-nonspecific isozyme (Homo sapiens, UniProt P05186); assay: human TNAP enzyme inhibitors, SAR follow-up, biochemical, luminescent, dose response (AID 1056)
# T1 sequence (P05186 whole entry): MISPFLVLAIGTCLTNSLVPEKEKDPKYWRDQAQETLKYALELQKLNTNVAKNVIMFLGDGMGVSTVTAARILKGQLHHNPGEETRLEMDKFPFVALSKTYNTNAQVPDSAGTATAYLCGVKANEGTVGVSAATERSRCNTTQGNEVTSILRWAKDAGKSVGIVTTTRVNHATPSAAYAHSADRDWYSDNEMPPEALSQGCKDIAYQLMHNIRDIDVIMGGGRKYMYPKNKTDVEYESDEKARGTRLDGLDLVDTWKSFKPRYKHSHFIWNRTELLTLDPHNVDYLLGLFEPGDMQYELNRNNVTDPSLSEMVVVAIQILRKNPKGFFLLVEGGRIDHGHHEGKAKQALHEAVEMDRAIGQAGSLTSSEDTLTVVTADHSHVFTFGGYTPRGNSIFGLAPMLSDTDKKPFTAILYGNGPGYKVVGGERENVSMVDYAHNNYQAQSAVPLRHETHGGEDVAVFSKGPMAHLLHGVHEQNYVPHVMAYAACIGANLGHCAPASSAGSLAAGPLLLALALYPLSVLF
# [2] = target: Alkaline phosphatase, placental type (Homo sapiens, UniProt P05187); assay: PLAP enzyme inhibitors, confirmation, biochemical, luminescence (AID 1512); type: functional
# Chain of Alkaline phosphatase, placental type (P05187 whole entry): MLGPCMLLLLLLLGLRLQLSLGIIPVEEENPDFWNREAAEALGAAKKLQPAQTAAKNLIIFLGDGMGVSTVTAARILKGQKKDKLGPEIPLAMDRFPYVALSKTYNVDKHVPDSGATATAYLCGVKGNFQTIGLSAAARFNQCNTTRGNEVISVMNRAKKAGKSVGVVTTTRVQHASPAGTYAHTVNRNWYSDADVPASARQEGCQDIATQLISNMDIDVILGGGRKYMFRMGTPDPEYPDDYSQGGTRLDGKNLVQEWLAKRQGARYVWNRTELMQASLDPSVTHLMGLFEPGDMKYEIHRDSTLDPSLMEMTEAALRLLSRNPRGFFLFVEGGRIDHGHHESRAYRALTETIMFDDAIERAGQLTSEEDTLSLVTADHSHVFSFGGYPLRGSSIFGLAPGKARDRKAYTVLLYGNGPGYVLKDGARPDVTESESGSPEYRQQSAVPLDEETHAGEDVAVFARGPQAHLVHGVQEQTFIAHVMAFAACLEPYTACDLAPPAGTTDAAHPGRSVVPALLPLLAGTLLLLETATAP
# [3] = target: Glyceraldehyde-3-phosphate dehydrogenase (Homo sapiens, UniProt P04406)
# Chain of Glyceraldehyde-3-phosphate dehydrogenase (P04406 whole entry): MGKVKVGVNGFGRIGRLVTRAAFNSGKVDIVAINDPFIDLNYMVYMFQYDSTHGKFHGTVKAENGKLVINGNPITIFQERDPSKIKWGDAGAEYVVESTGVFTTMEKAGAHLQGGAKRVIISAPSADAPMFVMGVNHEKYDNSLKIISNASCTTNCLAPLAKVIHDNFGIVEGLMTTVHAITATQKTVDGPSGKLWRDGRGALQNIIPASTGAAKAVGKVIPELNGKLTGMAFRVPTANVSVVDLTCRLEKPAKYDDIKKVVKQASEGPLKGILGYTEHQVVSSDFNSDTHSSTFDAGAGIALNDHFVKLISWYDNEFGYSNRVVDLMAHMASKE
# [4] = target: Dual specificity tyrosine-phosphorylation-regulated kinase 1A (Rattus norvegicus, UniProt Q63470); type: biochemical, Homo sapiens
# [5] = target: T2, Zinc finger protein mex-5 (Caenorhabditis elegans, UniProt Q9XUB2); assay: MEX-5/TCR-2 RNA interaction inhibitors, dose response, biochemical, C. elegans, fluorescence polarization (AID 1960)
# T2 sequence (Q9XUB2 whole entry): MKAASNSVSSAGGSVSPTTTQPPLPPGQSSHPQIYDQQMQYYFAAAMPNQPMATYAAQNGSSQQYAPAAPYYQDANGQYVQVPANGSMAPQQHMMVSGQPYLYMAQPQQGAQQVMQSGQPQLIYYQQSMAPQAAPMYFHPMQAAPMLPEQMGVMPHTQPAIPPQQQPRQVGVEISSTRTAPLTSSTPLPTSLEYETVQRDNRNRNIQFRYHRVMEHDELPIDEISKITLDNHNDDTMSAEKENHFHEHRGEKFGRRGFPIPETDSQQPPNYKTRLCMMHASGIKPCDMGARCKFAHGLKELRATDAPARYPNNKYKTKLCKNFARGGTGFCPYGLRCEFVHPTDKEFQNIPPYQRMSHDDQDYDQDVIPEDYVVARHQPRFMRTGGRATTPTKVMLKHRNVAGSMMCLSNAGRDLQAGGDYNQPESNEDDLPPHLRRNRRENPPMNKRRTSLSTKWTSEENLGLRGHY
# Large T antigen = Large T antigen (Simian virus 40, UniProt P03070); type: functional, Betapolyomavirus macacae;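 note: Confirmatory-stage PubChem screen for compounds that inhibit SV40 T antigen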
# Chain of Large T antigen (P03070 whole entry, the tested form may be a part): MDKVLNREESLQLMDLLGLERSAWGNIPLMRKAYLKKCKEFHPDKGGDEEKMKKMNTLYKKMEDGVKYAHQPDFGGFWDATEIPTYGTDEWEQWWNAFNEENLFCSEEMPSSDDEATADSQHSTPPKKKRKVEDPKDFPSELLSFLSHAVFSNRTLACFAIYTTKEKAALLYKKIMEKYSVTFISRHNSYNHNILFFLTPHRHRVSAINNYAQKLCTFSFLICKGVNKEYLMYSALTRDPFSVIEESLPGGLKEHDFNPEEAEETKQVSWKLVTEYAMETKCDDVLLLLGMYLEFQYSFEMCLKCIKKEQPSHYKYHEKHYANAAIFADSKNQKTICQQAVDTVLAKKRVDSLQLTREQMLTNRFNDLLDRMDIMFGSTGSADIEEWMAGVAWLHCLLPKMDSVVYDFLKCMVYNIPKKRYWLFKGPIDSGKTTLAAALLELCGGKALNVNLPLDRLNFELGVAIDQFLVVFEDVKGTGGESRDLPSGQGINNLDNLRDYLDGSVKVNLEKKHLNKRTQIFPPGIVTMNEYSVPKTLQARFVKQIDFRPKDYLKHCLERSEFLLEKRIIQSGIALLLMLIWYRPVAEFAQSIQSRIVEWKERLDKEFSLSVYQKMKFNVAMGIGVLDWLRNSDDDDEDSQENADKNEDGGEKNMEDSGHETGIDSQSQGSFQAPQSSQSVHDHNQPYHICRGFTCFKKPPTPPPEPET
# [6] = target: T3, RNA-binding protein pos-1 (Caenorhabditis elegans, UniProt G5EF15); assay: inhibitors of POS-1/mex-3 RNA binding, dose response, biochemical, fluorescence polarization (AID 1964);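 note: purified POS-1 fused to maltose binding protein made in E. coli; potency of compounds blocking POS-1 binding to fluorescent RNA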
# T3 sequence (G5EF15 whole entry): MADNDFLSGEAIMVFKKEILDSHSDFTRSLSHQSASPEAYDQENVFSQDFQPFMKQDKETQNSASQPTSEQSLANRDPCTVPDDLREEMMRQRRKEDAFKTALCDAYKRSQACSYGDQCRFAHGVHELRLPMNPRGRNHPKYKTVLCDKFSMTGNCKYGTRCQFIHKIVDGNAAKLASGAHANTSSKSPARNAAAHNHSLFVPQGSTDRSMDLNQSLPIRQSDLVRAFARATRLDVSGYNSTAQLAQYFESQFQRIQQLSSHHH
# [7] = target: Glucose-6-phosphate 1-dehydrogenase (Homo sapiens, UniProt P11413); assay: human G6PD enzyme inhibitors, dose response, selectivity assay for P. falciparum G6PD inhibitor project, biochemical, fluorescence (AID 504792); type: functional
# Chain of Glucose-6-phosphate 1-dehydrogenase (P11413 whole entry): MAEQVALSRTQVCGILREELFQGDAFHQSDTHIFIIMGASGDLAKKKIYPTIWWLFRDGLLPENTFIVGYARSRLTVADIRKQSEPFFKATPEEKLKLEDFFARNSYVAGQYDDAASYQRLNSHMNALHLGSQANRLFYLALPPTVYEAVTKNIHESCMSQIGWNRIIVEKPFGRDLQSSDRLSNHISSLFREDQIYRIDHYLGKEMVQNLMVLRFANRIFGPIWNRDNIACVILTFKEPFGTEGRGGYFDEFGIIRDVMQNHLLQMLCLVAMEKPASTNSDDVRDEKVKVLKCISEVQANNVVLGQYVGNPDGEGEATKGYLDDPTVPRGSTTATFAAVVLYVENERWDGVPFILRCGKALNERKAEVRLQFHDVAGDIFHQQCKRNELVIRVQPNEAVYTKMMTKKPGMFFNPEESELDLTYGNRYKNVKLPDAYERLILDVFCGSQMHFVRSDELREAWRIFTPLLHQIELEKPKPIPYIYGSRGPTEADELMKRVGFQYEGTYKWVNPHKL
# Cytochrome P450 3A4 = Cytochrome P450 3A4 (Homo sapiens, UniProt P08684);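 note: CYP3A4 tested as one member of a cytochrome P450 panel screen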
# Chain of Cytochrome P450 3A4 (P08684 whole entry): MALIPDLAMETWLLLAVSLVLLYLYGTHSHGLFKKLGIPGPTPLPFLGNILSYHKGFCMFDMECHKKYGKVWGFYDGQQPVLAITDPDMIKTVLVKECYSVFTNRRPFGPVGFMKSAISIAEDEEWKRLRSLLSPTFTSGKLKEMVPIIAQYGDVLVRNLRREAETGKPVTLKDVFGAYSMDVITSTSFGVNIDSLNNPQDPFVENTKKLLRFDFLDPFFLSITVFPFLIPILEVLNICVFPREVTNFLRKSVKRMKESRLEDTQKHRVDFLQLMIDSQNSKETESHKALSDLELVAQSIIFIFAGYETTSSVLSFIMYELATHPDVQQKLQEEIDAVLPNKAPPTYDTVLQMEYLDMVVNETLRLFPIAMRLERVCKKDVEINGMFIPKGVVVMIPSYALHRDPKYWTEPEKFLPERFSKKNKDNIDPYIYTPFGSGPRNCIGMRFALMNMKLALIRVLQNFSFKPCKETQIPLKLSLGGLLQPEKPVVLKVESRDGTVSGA
# Albumin = Albumin (Bos taurus, UniProt P02769); assay: Counterscreen for inhibitors of T-cell receptor (TCR)-CD3 interaction: Fluorescence-based biochemical high throughput dose response assay to identify inhibitors of T-cell receptor (TCR)-CD3 interaction using a TAMRA-labeled BSA probe.; type: functional
# Chain of Albumin (P02769 whole entry): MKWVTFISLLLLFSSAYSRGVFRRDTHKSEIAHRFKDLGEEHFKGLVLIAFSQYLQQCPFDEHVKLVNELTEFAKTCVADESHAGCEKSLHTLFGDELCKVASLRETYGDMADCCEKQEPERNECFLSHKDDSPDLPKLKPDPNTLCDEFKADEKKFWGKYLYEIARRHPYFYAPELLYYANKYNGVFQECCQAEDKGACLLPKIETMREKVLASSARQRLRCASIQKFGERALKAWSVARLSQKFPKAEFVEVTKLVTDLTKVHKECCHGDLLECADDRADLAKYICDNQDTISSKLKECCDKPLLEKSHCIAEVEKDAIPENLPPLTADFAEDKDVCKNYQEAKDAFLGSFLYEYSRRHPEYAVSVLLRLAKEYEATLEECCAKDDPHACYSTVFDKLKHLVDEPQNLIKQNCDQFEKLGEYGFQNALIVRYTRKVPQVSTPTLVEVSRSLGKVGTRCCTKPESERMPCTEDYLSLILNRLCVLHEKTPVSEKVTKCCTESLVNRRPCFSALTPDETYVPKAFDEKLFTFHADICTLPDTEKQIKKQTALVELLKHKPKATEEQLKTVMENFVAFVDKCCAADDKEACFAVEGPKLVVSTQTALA
# [8] = target: Intestinal-type alkaline phosphatase (Homo sapiens, UniProt P09923); assay: inhibition of human intestinal alkaline phosphatase – biochemical, dose response (AID 488876); type: functional
# Chain of Intestinal-type alkaline phosphatase (Homo sapiens, UniProt P09923) (P09923 whole entry): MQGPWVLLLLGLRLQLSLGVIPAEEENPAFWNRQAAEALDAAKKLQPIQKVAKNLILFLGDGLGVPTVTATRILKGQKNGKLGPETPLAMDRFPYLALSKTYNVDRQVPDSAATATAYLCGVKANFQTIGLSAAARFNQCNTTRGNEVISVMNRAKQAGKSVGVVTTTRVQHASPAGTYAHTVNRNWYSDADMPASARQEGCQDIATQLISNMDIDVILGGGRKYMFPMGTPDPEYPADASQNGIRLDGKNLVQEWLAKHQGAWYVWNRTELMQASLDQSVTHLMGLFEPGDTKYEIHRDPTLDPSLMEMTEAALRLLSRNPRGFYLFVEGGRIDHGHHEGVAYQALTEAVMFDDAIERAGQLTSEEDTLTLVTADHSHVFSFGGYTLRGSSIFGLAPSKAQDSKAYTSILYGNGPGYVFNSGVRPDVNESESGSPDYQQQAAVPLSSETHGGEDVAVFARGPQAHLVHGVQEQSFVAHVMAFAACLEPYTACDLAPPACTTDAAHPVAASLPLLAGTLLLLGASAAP
# [9] = target: T4, Histone-lysine N-methyltransferase NSD2 (Homo sapiens, UniProt O96028); type: biochemical
# T4 sequence (O96028 whole entry): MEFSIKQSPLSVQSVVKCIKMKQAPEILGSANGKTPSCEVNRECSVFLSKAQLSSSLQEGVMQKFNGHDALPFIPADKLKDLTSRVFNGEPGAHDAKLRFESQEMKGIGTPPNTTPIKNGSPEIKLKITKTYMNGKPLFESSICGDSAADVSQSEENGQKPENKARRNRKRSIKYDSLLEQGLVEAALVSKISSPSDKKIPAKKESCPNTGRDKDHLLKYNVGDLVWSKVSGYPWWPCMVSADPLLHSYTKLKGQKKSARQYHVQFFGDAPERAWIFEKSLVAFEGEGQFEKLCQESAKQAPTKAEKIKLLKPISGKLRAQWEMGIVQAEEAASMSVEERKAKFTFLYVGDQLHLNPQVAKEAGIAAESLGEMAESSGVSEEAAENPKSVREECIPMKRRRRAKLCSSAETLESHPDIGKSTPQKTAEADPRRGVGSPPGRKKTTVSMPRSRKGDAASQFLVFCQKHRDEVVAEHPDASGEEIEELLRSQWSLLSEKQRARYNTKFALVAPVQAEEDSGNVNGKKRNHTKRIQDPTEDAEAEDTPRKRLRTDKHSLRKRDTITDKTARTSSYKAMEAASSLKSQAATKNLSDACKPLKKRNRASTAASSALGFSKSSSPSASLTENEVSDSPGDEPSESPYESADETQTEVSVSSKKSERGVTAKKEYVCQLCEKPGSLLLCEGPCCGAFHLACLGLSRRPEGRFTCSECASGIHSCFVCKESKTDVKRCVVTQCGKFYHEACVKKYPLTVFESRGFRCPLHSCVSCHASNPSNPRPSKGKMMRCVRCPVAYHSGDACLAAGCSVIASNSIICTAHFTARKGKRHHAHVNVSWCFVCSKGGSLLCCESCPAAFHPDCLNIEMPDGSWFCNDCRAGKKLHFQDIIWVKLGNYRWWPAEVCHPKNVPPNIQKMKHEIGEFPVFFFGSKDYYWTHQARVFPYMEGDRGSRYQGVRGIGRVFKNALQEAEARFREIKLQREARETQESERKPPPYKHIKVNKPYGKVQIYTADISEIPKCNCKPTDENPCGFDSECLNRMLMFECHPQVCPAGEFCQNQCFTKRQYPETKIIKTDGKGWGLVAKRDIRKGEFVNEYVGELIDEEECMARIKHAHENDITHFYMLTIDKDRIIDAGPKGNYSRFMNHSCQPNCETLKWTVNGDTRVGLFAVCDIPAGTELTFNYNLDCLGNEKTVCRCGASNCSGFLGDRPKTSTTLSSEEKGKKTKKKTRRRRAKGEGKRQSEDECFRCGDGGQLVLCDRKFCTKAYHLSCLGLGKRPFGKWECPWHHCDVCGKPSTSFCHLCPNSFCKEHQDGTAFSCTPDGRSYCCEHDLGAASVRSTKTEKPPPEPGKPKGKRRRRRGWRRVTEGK
# [10] = target: Intestinal-type alkaline phosphatase (Mus musculus, UniProt P24822); assay: PubChem AID 488785; type: functional
# Chain of Intestinal-type alkaline phosphatase (Mus musculus, UniProt P24822) (P24822 whole entry): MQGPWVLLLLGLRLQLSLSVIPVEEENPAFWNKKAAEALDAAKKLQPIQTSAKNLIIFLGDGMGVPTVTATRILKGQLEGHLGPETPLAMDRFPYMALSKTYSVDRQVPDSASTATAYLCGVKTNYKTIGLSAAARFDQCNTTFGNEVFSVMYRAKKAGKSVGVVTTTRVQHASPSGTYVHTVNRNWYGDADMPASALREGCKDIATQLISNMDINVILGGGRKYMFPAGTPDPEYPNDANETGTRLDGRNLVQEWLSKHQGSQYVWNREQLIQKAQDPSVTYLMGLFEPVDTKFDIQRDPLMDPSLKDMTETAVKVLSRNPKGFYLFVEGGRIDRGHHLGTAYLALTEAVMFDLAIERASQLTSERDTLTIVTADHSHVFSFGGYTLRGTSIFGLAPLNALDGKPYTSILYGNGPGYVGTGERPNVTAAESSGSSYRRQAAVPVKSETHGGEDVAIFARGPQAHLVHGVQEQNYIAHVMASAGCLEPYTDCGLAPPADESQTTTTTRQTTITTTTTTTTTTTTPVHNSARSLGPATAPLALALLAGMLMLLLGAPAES
# [11] = target: T1, Alkaline phosphatase, tissue-nonspecific isozyme; assay: TNAP enzyme inhibition by screening hits, dose response, selectivity assay for mouse IAP inhibitor project, biochemical, human TNAP, uHTS hits (AID 488906); type: functional
smiles,measurement,setting,value
O=C(c1cc(-c2cc(F)c(Cl)cc2Cl)[nH]n1)N1CCCCC1,IC50,[1],0.322 µM (active)
same,IC50,[2],> 100 µM (inactive)
same,IC50,[3],> 100 µM (not active)
COc1cc(-c2cc(=O)c3c(O)c(OC)c(OC)c(O)c3o2)ccc1O [ISOTHYMONIN],AC50,[4],892 nM (active)
same,EC50,[5],7.08 µM (inconclusive)
same,IC50,Large T antigen,6.77 µM (active)
same,EC50,[6],48 µM (active)
same,IC50,[7],> 80 µM (inactive)
CC(C)(C)C1CCC(OCC(O)CN2CCN(c3ccccc3)CC2)CC1.Cl (stereo not drawn),AC50,Cytochrome P450 3A4,inconclusive
COc1ccc(C(=O)CSc2nc(C)cc(C)n2)cc1,IC50,[1],> 100 µM (inactive)
same,IC50,[2],> 100 µM (inactive)
O=C(Cc1nnc(NC(=O)c2ccccc2)s1)N/N=C\c1ccc(O)c(O)c1,IC50,Albumin,> 94.1 µM (inactive)
same,IC50,[8],> 100 µM (inactive)
same,AC50,[9],5.23 µM (active)
same,IC50,[10],24.6 µM (active)
same,IC50,Large T antigen,20.8 µM (active)
same,IC50,[11],> 100 µM (inactive)
CN(C)c1ccnc(-c2ccccc2C(F)(F)F)n1,AC50,Cytochrome P450 3A4,inconclusive
